The results in this text go back to patent publication US20240165243A1, “EGFR DEGRADERS AND METHODS OF USE” (BeiGene Switzerland GmbH, priority 2021, published 2024).

This assay relates to EGFR (Del19/T790M/C797S). Nature of the assay: Cell degradation HTRF assay, H1975-clone #28 cells. It is filed as cell-based. Conditions: H1975-clone #28 (Del19/T790M/C797S) cells, 16 h treatment; for DC50: HTRF, read-out: H1975-clone#28 DTC DC50; for H1975-clone#28 DTC Dmax (%): maximum percentage of degradation. As for the experimental part:
Cell Degradation of Example 124-189
H1975-#28 and H1975-#25 cells are treated with compounds diluted in 0.2% DMSO cell culture medium on day 2, incubate for 16 h, 37° C., 5% CO2. the final concentration of compounds in all assay is start with 10 uM, 5-fold dilution, total 8 doses were included.
After 16 h treatment, add HTRF lysis buffer to each well; seal the plate and incubate 1 hour at room temperature on a plate shaker; Once the cells are lysed, 16 μL of cell lysate are transferred to a PE 384-well HTRF detection plate; 4 μL of pre-mixed HTRF antibodies are added to each well; Cover the plate with a plate sealer, spin 1000 rpm for 1 min, Incubate overnight at room temperature; Read on BMG PheraStar with HTRF protocol (337 nm-665 nm-620 nm).
The inhibition (degradation) percentage of the compound was calculated by the following equation:
Inhibition percentage of Compound=100−100×(Signal−low control)/(High control−low control), wherein signal=each test compound group.
High control=Cell group with added DMSO and without compound, indicating microplate readings without EGFR degradation;
Dmax is the maximum percentage of inhibition (degradation).
The IC50 (DC50) value of a compound can be obtained by fitting the following equation
Y=Bottom+(TOP−Bottom)/(1+((IC50/X)^hillslope))
Wherein, X and Y are known values, and IC50, Hillslope, Top and Bottom are the parameters obtained by fitting with software. Y is the inhibition percentage (calculated from the equation), X is the concentration of the compound; IC50 is the concentration of the compound when the 50% inhibition is reached. The smaller the IC50 value is, the stronger the inhibitory ability of the compound is. Vice versa, the higher the IC50 value is, the weaker the ability the inhibitory ability of the compound is; Hillslope represents the slope of the fitted curve, generally around 1*; Bottom represents the minimum value of the curve obtained by data fitting, which is generally 0%±20%; Top represents the maximum value of the curve obtained by data fitting, which is generally 100%±20%. The experimental data were fitted by calculating and analyzing with Dotmatics data analysis software. When Dmax<50%, DC50 will be automatically assigned as larger than […].
In general terms: In TR-FRET formats the signal depends on donor and acceptor labels being close together.

As for `CCc1cc(Nc2ncc(Br)c(Nc3cnc4ccc(F)cc4c3P(C)(C)=O)n2)c(OC)cc1N1CCC(N2CCN(CCc3cccc4c3n(C)c(=O)n4C3CCC(=O)NC3=O)CC2)CC1` (stereo not shown) [Example 170, 3-(4-(2-(4-(1-(4-((5-bromo-4-((4-(dimethylphosphoryl)-6-fluoroquinolin-3-yl)amino)pyrimidin-2-yl)amino)-2-ethyl-5-methoxyphenyl)piperidin-4-yl)piperazin-1-yl)ethyl)-3-methyl-2-oxo-2,3-dihydro-1H-benzo[d]imidazol-1-yl)piperidine-2,6-dione], the DC50 is 2.1 nM and the “H1975-clone#28 DTC Dmax (%)” value is 82%.

With `CCc1cc(Nc2ncc(Br)c(Nc3cnc4ccccc4c3P(C)(C)=O)n2)c(OC)cc1N1CCC(N2CCN(CCc3ccc4c(c3)oc(=O)n4C3CCC(=O)NC3=O)CC2)CC1` (stereo not shown) [Example 132, 3-(6-(2-(4-(1-(4-((5-bromo-4-((4-(dimethylphosphoryl)quinolin-3-yl)amino)pyrimidin-2-yl)amino)-2-ethyl-5-methoxyphenyl)piperidin-4-yl)piperazin-1-yl)ethyl)-2-oxobenzo[d]oxazol-3(2H)-yl)piperidine-2,6-dione], the DC50 was determined as 1 nM and the “H1975-clone#28 DTC Dmax (%)” value is recorded as 80%.

With `CCc1cc(Nc2ncc(Br)c(Nc3cnc4cc(F)ccc4c3P(C)(C)=O)n2)c(OC)cc1N1CCC(N2CCN(CCc3ccc4c(c3)oc(=O)n4C3CCC(=O)NC3=O)CC2)CC1` (stereo not shown) [Example 134, 3-(6-(2-(4-(1-(4-((5-bromo-4-((4-(dimethylphosphoryl)-7-fluoroquinolin-3-yl)amino)pyrimidin-2-yl)amino)-2-ethyl-5-methoxyphenyl)piperidin-4-yl)piperazin-1-yl)ethyl)-2-oxobenzo[d]oxazol-3(2H)-yl)piperidine-2,6-dione], the DC50 was found to be 0.8 nM and the “H1975-clone#28 DTC Dmax (%)” value worked out at 79%.

Consider `CCOc1cc(N2CCC(N3CCN(CCc4ccc5c(c4)oc(=O)n5C4CCC(=O)NC4=O)CC3)CC2)c(CC)cc1Nc1ncc(Br)c(Nc2cnc3cc(F)ccc3c2P(C)(C)=O)n1` (stereo not shown) [Example 133, 3-(6-(2-(4-(1-(4-((5-bromo-4-((4-(dimethylphosphoryl)-7-fluoroquinolin-3-yl)amino)pyrimidin-2-yl)amino)-5-ethoxy-2-ethylphenyl)piperidin-4-yl)piperazin-1-yl)ethyl)-2-oxobenzo[d]oxazol-3(2H)-yl)piperidine-2,6-dione], for which the half-maximal degradation concentration (DC50) amounted to 3 nM and the “H1975-clone#28 DTC Dmax (%)” value came to 71%.

On to `CCc1cc(Nc2ncc(Br)c(Nc3cnc4ccccc4c3P(C)(C)=O)n2)c(OC)cc1N1CCC(N2CCN(CCc3cccc4c3n(CC)c(=O)n4C3CCC(=O)NC3=O)CC2)CC1` (stereo not shown) [Example 163, 3-(4-(2-(4-(1-(4-((5-bromo-4-((4-(dimethylphosphoryl)quinolin-3-yl)amino)pyrimidin-2-yl)amino)-2-ethyl-5-methoxyphenyl)piperidin-4-yl)piperazin-1-yl)ethyl)-3-ethyl-2-oxo-2,3-dihydro-1H-benzo[d]imidazol-1-yl)piperidine-2,6-dione], for which the DC50 stood at 1.1 nM and the “H1975-clone#28 DTC Dmax (%)” value worked out at 86%.

In the case of `CCc1cc(Nc2ncc(Br)c(Nc3cnc4c(F)cccc4c3P(C)(C)=O)n2)c(OC)cc1N1CCC(N2CCN(CCC3CCN(c4cc(F)c(C5CCC(=O)NC5=O)c(F)c4)CC3)CC2)CC1` (stereo not shown) [Example 165, 3-(4-(4-(2-(4-(1-(4-((5-bromo-4-((4-(dimethylphosphoryl)-8-fluoroquinolin-3-yl)amino)pyrimidin-2-yl)amino)-2-ethyl-5-methoxyphenyl)piperidin-4-yl)piperazin-1-yl)ethyl)piperidin-1-yl)-2,6-difluorophenyl)piperidine-2,6-dione], the DC50 was determined as 4.2 nM and the “H1975-clone#28 DTC Dmax (%)” value came out at 84%.

With `CCc1cc(Nc2ncc(Br)c(Nc3cnc4ccccc4c3P(C)(C)=O)n2)c(OC)cc1N1CCC(N2CCN(CCc3cccc4c3n(C3CC3)c(=O)n4C3CCC(=O)NC3=O)CC2)CC1` (stereo not shown) [Example 155, 3-(4-(2-(4-(1-(4-((5-bromo-4-((4-(dimethylphosphoryl)quinolin-3-yl)amino)pyrimidin-2-yl)amino)-2-ethyl-5-methoxyphenyl)piperidin-4-yl)piperazin-1-yl)ethyl)-3-cyclopropyl-2-oxo-2,3-dihydro-1H-benzo[d]imidazol-1-yl)piperidine-2,6-dione], the DC50 was 0.7 nM and the “H1975-clone#28 DTC Dmax (%)” value is recorded as 85%.

As to `CCc1cc(Nc2ncc(Br)c(Nc3cnc4ccc(C(F)(F)F)cc4c3P(C)(C)=O)n2)c(OC)cc1N1CCC(N2CCN(CCc3cc(F)c(C4CCC(=O)NC4=O)c(F)c3)CC2)CC1` (stereo not shown) [Example 171, 3-(4-(2-(4-(1-(4-((5-bromo-4-((4-(dimethylphosphoryl)-6-(trifluoromethyl)quinolin-3-yl)amino)pyrimidin-2-yl)amino)-2-ethyl-5-methoxyphenyl)piperidin-4-yl)piperazin-1-yl)ethyl)-2,6-difluorophenyl)piperidine-2,6-dione], the DC50 was 4.3 nM and the “H1975-clone#28 DTC Dmax (%)” value was 79%.

`CCc1cc(Nc2ncc(Br)c(Nc3cnc4ccccc4c3P(C)(C)=O)n2)c(OC)cc1N1CCC(N2CCN(C(=O)[C@H]3CCN(c4ccc5c(c4)C(C)(C)C(=O)N5C4CCC(=O)NC4=O)C3)CC2)CC1` (stereo partly drawn) [Example 168, 3-(5-((S)-3-(4-(1-(4-((5-bromo-4-((4-(dimethylphosphoryl)quinolin-3-yl)amino)pyrimidin-2-yl)amino)-2-ethyl-5-methoxyphenyl)piperidin-4-yl)piperazine-1-carbonyl)pyrrolidin-1-yl)-3,3-dimethyl-2-oxoindolin-1-yl)piperidine-2,6-dione]: the DC50 came to 2 nM and the “H1975-clone#28 DTC Dmax (%)” value came out at 47%.

For the compound `CCc1cc(Nc2ncc(Br)c(Nc3cnc4ccccc4c3P(C)(C)=O)n2)c(OC)cc1N1CCC(N2CCN(CCc3ccc(F)c4c3n(C)c(=O)n4C3CCC(=O)NC3=O)CC2)CC1` (stereo not shown) [Example 130, 3-(4-(2-(4-(1-(4-((5-bromo-4-((4-(dimethylphosphoryl)quinolin-3-yl)amino)pyrimidin-2-yl)amino)-2-ethyl-5-methoxyphenyl)piperidin-4-yl)piperazin-1-yl)ethyl)-7-fluoro-3-methyl-2-oxo-2,3-dihydro-1H-benzo[d]imidazol-1-yl)piperidine-2,6-dione], the 50% degradation concentration (DC50) is 1 nM and the “H1975-clone#28 DTC Dmax (%)” value amounted to 86%.

On to `CCc1cc(Nc2ncc(Br)c(Nc3cnc4ccccc4c3P(C)(C)=O)n2)c(OC)cc1N1CCC(N2CCN(CCc3cccc4c3oc(=O)n4C3CCC(=O)NC3=O)CC2)CC1` (stereo not shown) [Example 188, 3-(7-(2-(4-(1-(4-((5-bromo-4-((4-(dimethylphosphoryl)quinolin-3-yl)amino)pyrimidin-2-yl)amino)-2-ethyl-5-methoxyphenyl)piperidin-4-yl)piperazin-1-yl)ethyl)-2-oxobenzo[d]oxazol-3(2H)-yl)piperidine-2,6-dione], for which the half-maximal degradation concentration (DC50) turned out to be 0.8 nM and the “H1975-clone#28 DTC Dmax (%)” value was determined as 84%.

For `CCOc1cc(N2CCC(N3CCN(CCc4c(F)ccc5c4n(C)c(=O)n5C4CCC(=O)NC4=O)CC3)CC2)c(CC)cc1Nc1ncc(Br)c(Nc2cnc3ccccc3c2P(C)(C)=O)n1` (stereo not shown) [Example 137, 3-(4-(2-(4-(1-(4-((5-bromo-4-((4-(dimethylphosphoryl)quinolin-3-yl)amino)pyrimidin-2-yl)amino)-5-ethoxy-2-ethylphenyl)piperidin-4-yl)piperazin-1-yl)ethyl)-5-fluoro-3-methyl-2-oxo-2,3-dihydro-1H-benzo[d]imidazol-1-yl) piperidine-2,6-dione], the DC50 stood at 2.1 nM and the “H1975-clone#28 DTC Dmax (%)” value was 86%.

On to `CCc1cc(Nc2ncc(Br)c(Nc3cnc4ccccc4c3P(C)(C)=O)n2)c(OC)cc1N1CCC(N2CCN(CCc3cccc4c3n(CC)c(=O)n4C3CCC(=O)NC3=O)CC2)CC1` (stereo not shown) [Example 135, 3-(4-(2-(4-(1-(4-((5-bromo-4-((4-(dimethylphosphoryl)quinolin-3-yl)amino)pyrimidin-2-yl)amino)-2-ethyl-5-methoxyphenyl)piperidin-4-yl)piperazin-1-yl)ethyl)-3-ethyl-2-oxo-2,3-dihydro-1H-benzo[d]imidazol-1-yl)piperidine-2,6-dione], for which the DC50 was 0.9 nM and the “H1975-clone#28 DTC Dmax (%)” value is 83%.

With `CCc1cc(Nc2ncc(Br)c(Nc3cnc4cc(F)ccc4c3P(C)(C)=O)n2)c(OC)cc1N1CCC(N2CCN(CCc3ccc4c(c3)oc(=O)n4C3CCC(=O)NC3=O)CC2)CC1` (stereo not shown) [Example 153, 3-(6-(2-(4-(1-(4-((5-bromo-4-((4-(dimethylphosphoryl)-7-fluoroquinolin-3-yl)amino)pyrimidin-2-yl)amino)-2-ethyl-5-methoxyphenyl)piperidin-4-yl)piperazin-1-yl)ethyl)-2-oxobenzo[d]oxazol-3(2H)-yl)piperidine-2,6-dione], the DC50 turned out to be 0.8 nM and the “H1975-clone#28 DTC Dmax (%)” value is 77%.

Broadly, the DC50 is the concentration giving 50% degradation.
